By viability, T/C is commonly meant the result in the treated group divided by that in the control group, in per cent. By IC50 is commonly meant the concentration at which inhibition is half-maximal.

Structures are written as SMILES. “And” between values parts separate entries of the source, which are not always exact repeats. Identical values can stand only once.

Data on nine compounds can be found in PubChem BioAssay AID1919008 (Molecular Pharmacology Branch, DTP, NCI, 2023).

The test system of the test is DMS-114 complex spheroids with HUVEC/MSC, growth % test/control. Description: Anticancer human tumor DMS-114 cell line growth inhibition [AhR].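 As to all read-outs here: spheroids exposed to agents for 7 days before readout.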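 As to viability, T/C: 100% = DMSO vehicle control wells.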 As to conditions: for viability, T/C: stronger effect = lower value; for IC50: curve of compound. From the text:
Multicellular complex tumor spheroid response to aryl hydrocarbon receptor antagonists in combination with a variety of drugs and investigational agents in selected tumor cell lines
The current study was undertaken to assess response to aryl hydrocarbon receptor antagonists in combination with standard-of-care drugs and investigational agents in solid tumor complex spheroid models. Complex spheroids include a stromal component modeled by human endothelial cells (HUVEC) and fibroblasts modeled by human mesenchymal stem cells (MSCs). The concentration ranges selected for each drug and investigational agent were based upon clinically achievable concentrations if the clinical Cmax of the agent was known.
Compounds. The drugs and investigational agents: BAY 2416964 (NSC825713), GNF351 (NSC835774), CH-223191 (NSC835775), CPI-455 (NSC825282), aza-TdCyd (NSC777586), decitabine (NSC127716), belinostat (NSC758774), entinostat (NSC756642), pevonedistat (NSC761192), tazemetostat (NSC777109), talazoparib (NSC765396), olaparib (NSC753686), selinexor (NSC780203), nedisertib (M3814, NSC802822), bortezomib (NSC756655), venetoclax (NSC766270), doxorubicin (NSC123127), elimusertib (BAY189344, NSC800525), ceralasertib (AZD6738, NSC777638), TAK-243 (NSC785004), alisertib (NSC759677), etoposide (NSC141540), topotecan (NSC609699), eribulin (NSC707389), gemcitabine (NSC613327), carboplatin (NSC241240), cisplatin (NSC119875), and SN-38 (NSC673596) were obtained from the National Cancer Institute (NCI) Developmental Therapeutics Program Chemical Repository (32). The FDA-approved anticancer drug set is available from the Developmental Therapeutics Program at https://dtp.cancer.gov/organization/dscb/obtaining/available plates.htm. […] The stock solutions were prepared in dimethyl sulfoxide (DMSO, Sigma-Aldrich, St. Louis, MO, cat. D2650), except for the platinum compounds which were prepared in saline (Quality Biological, Gaithersburg, MD, cat. 114-055-101), at 800-fold the tested concentration and stored at -70 degrees C prior to their use. All drugs and investigational agents were tested over a range starting from a high concentration at or near the clinical Cmax and decreasing in half-log increments. If the clinical Cmax for an agent had not been determined, the highest concentration tested was 10 microM (Table 1).
Cell Culture. All cells were maintained in an incubator at 37 degrees C and 5% CO2 with 95% humidity. The PDC lines were cultured according to standard operating procedures established by the NCI PDMR (https://pdmr.cancer.gov). Briefly, all PDCs were thawed and cultured in Matrigel-coated flasks prepared with a working solution of 1X Ham's F-12 nutrient mix, without supplementation (Invitrogen, Waltham, MA, cat. 11765054), 100 U/mL penicillin-streptomycin (Invitrogen, cat. 15140122), and 2.5% Matrigel (Corning Inc., Corning, NY, cat. 354248) for the first three passages. All PDCs were cultured in complete DMEM/F-12 media containing advanced DMEM/F-12 (Invitrogen, cat. 12634028), 4.9% defined fetal bovine serum, heat inactivated (HyClone Laboratories Inc., Logan, UT, cat. SH30070.03HI), 389 ng/mL hydrocortisone (Sigma-Aldrich, cat. H4001), 9.7 ng/mL human EGF recombinant protein (Invitrogen, cat. PHG0313), 23.4 microg/mL adenine (Sigma-Aldrich, cat. A2786), 97.3 U/mL penicillin-streptomycin (Invitrogen, cat. 15140122), 1.9 mM L-glutamine (Invitrogen, cat. 25030081), and 9.7 microM Y-27632 dihydrochloride (Tocris Bioscience, Bristol, United Kingdom, cat. 1254). The PDCs were cultured in complete DMEM/F12 media without 10 microM Y-27632 dihydrochloride for at least two passages prior to the screen. The established cell lines NCI-H1341 and […] were cultured in DMEM/F-12, HEPES (Invitrogen, cat. 11330032), 5% defined fetal bovine serum (HyClone Laboratories Inc., cat. SH30070.03), ITS premix universal culture supplement [insulin (5 microg/mL), transferrin (5 microg/mL), and selenious acid (5 ng/mL)] […]

Take `CC(C)CC(NC(=O)C(Cc1ccccc1)NC(=O)c1cnccn1)B(O)O` (stereo unspecified): the IC50 is 5.51 nM and 5.76 nM and 4 nM. Further, where the note is “compound 0.000949 µM”, the viability, T/C is 98.7% and 95% and 101%. Moreover, the viability, T/C (compound 0.003 µM) was 109% and 105% and 66.2%. Moreover, under “compound 0.00949 µM”, the viability, T/C was 1.7% and 11.6% and 1.54%. Moreover, the viability, T/C (compound 0.03 µM) is 0.16% and 0.44% and 0.39%. Also, the viability, T/C (compound 0.0949 µM) is 0.13% and 0.38% and 0.33%. In addition, the viability, T/C (compound 0.3 µM) is 0.21% and 0.32% and 0.4%.

In the case of `CC1(C)CCC(CN2CCN(c3ccc(C(=O)NS(=O)(=O)c4ccc(NCC5CCOCC5)c([N+](=O)[O-])c4)c(Oc4cnc5[nH]ccc5c4)c3)CC2)=C(c2ccc(Cl)cc2)C1`, the IC50 was greater than 10000 nM. The viability, T/C (compound 0.0316 µM) was 101% and 99.7% and 98.9%. Also, the viability, T/C (compound 0.1 µM) was 102% and 97.2% and 99%. Besides, the viability, T/C (compound 0.316 µM) is 92.6% and 103% and 110%. In addition, the viability, T/C (compound 1 µM) was 98.6% and 108% and 117%. Also, the viability, T/C (compound 3.16 µM) was 113% and 107% and 116%. For the same compound, the viability, T/C (compound 10 µM) is 107% and 105% and 61.2%.

In the case of `CC1COCCN1c1cc(-c2ccnn2C)c2ccnc(-c3ccn[nH]3)c2n1` (stereo unspecified), the viability, T/C runs as follows: (compound 0.00316 µM) 89.5% and 94.4% and 96.2%; (compound 0.01 µM) 76.2% and 102% and 80.5%; (compound 0.0316 µM) 50.2% and 101% and 62.9%; (compound 0.1 µM) 32.1% and 81.2% and 45%; (compound 0.316 µM) 21.2% and 65.8% and 31.5%; (compound 1 µM) 10.6% and 33.4% and 15.8%.

On to `CCN(c1cc(-c2ccc(CN3CCOCC3)cc2)cc(C(=O)NCc2c(C)cc(C)[nH]c2=O)c1C)C1CCOCC1`, for which the IC50 is greater than 3000 nM. Further, the viability, T/C (compound 0.00949 µM) is 99.5% and 108% and 105%. Where the note is “compound 0.03 µM”, the viability, T/C was 110% and 95.2% and 118%. The viability, T/C (compound 0.0949 µM) is 112% and 105% and 109%. Further, the viability, T/C (compound 0.3 µM) is 101% and 100% and 115%. Moreover, the viability, T/C (compound 0.949 µM) is 73.7% and 104% and 92.1%. Also, the viability, T/C (compound 3 µM) is 68.2% and 106% and 76.9%.

Take `CC[C@@]1(O)C(=O)OCc2c1cc1n(c2=O)Cc2cc3c(CN(C)C)c(O)ccc3nc2-1`: the IC50 is 23.4 nM and 27.8 nM and 64.4 nM. Also, the viability, T/C (compound 0.000316 µM) was 101% (2×) and 99%. Under “compound 0.001 µM”, the viability, T/C was 96.5% and 104% and 98.2%. The viability, T/C (compound 0.00316 µM) is 93.2% and 85.7% and 107%. The viability, T/C (compound 0.01 µM) was 79.9% and 87.8% and 95.2%. Where the note is “compound 0.0316 µM”, the viability, T/C was 39.3% and 44.6% and 60.9%. In addition, the viability, T/C (compound 0.1 µM) is 19% and 22.2% and 43.2%.

With `CCc1c2c(nc3ccc(O)cc13)-c1cc3c(c(=O)n1C2)COC(=O)[C@]3(O)CC`, the IC50 is 2.01 nM and 9.5 nM and 1.79 nM. In addition, the viability, T/C (compound 0.000949 µM) is 67.7% and 96.1% and 59.2%. Further, the viability, T/C (compound 0.003 µM) was 40.4% and 91.2% and 42.6%. In addition, the viability, T/C (compound 0.00949 µM) is 20% and 50% and 21.4%. The viability, T/C (compound 0.03 µM) is 13.4% and 36.5% and 21.1%. Under “compound 0.0949 µM”, the viability, T/C is 14.4% and 37.9% and 15.2%. Also, the viability, T/C (compound 0.3 µM) is 14.4% and 35.1% and 16.7%.

`COc1cc(C2c3cc4c(cc3C(OC3OC5COC(C)OC5C(O)C3O)C3COC(=O)C23)OCO4)cc(OC)c1O` (stereo unspecified): the IC50 was 402 nM and 682 nM and 1810 nM. The viability, T/C (compound 0.0316 µM) was 96.4% and 99.5% and 94.3%. Further, the viability, T/C (compound 0.1 µM) is 85.2% and 85.9% and 99%. For the same compound, under “compound 0.316 µM”, the viability, T/C is 57.3% and 77% and 89.2%. Also, the viability, T/C (compound 1 µM) is 23.7% and 34.1% and 60.9%. Besides, the viability, T/C (compound 3.16 µM) was 16.9% and 30.2% and 40.8%. Also, the viability, T/C (compound 10 µM) is 9.04% and 15.1% and 30.3%.

For `COc1cc(Nc2ncc3c(n2)-c2ccc(Cl)cc2C(c2c(F)cccc2OC)=NC3)ccc1C(=O)O`, the viability, T/C (compound 0.0316 µM) is 24.8% and 65.8% and 25.6%; the viability, T/C (compound 0.1 µM) was 24.5% and 56.9% and 27.2%; the viability, T/C (compound 0.316 µM) is 40% and 108% and 56%; the viability, T/C (compound 1 µM) was 65.1% and 114% and 79%; the viability, T/C (compound 3.16 µM) is 64% and 116% and 85.6%; the viability, T/C (compound 10 µM) was 74.5% and 104% and 61.2%.

With `COc1cccc2c1C(=O)c1c(O)c3c(c(O)c1C2=O)CC(O)(C(=O)CO)CC3OC1CC(N)C(O)C(C)O1` (stereo unspecified), the IC50 is < 31.6 nM and 115 nM. Besides, the viability, T/C (compound 0.0316 µM) was 23.9% and 68.6% and 44.3%. For the setting “compound 0.1 µM”, the viability, T/C was 18% and 54.1% and 32.1%. Besides, the viability, T/C (compound 0.316 µM) was 4.97% and 18.6% and 9.53%. The viability, T/C (compound 1 µM) was 0.27% and 1.97% and 1.19%. For the same compound, the viability, T/C (compound 3.16 µM) was 0.18% and 0.45% and 0.38%. Also, the viability, T/C (compound 10 µM) is 0.28% and 0.73% and 0.56%.
